{"source": "patent US20220235011A1", "about": "“PHTHALAZINONE COMPOUNDS AND USE THEREOF” (ST PHARM CO., LTD., priority 2019, published 2022)"}
{"molecular_target": "T1, Sirt6 (Homo sapiens, UniProt Q8N6T7)", "T1 construct": "purchased CycLex CY-1156V2", "T1 sequence (Q8N6T7 whole entry)": "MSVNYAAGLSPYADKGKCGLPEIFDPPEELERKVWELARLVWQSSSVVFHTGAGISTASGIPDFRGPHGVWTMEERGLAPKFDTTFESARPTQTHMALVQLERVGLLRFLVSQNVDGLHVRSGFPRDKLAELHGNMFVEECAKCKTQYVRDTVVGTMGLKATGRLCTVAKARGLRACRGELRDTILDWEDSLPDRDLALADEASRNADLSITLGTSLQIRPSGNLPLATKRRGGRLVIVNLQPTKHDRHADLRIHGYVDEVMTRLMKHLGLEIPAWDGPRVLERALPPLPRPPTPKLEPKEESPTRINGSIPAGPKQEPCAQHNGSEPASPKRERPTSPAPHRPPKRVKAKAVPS", "assay": "Measurement of Sirt6 Activity (CycLex Sirt6 Deacetylase Fluorometric Assay Kit)", "format": "biochemical", "details": "compound at 10 μM; fluorescence relative to the group without compound treatment (positive control group)", "method_in_brief": "(§1)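 Recombinant Sirt6 with fluoro-labelled acetyl-lysine peptide, NAD and lysylendopeptidase developer, compound added from 10× stock in PBS; 1 h at room temperature. Fluorescence read at ex 490/em 530 nm; activation expressed as fluorescence ratio relative to enzyme without compound.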", "units": {"Sirt6 Activity (% activity, 10 μM)": "% activity"}}
{"molecule": "COC(=O)C1(C2CCCN(c3nn(-c4ccc(F)cc4F)c(=O)c4ccccc34)C2)CC1", "note": "(centres unmarked) [Example 211, Methyl 1-(1-(3-(2,4-difluorophenyl)-4-oxo-3,4-dihydrophthalazin-1-yl)piperidin-3-yl)cyclopropan-1-carboxylate]", "Sirt6 Activity (% activity, 10 μM)": 170.00}
{"molecule": "O=c1c2ccccc2c(-c2cccc(S(=O)(=O)N3CCCC3)c2)nn1-c1ccc(F)cc1F", "note": "[Example 214, 2-(2,4-Difluorophenyl)-4-(3-(pyrrolidin-1-ylsulfonyl)phenyl)phthalazin-1(2H)-one]", "Sirt6 Activity (% activity, 10 μM)": 233.90}
{"molecule": "Cl.O=c1c2ccccc2c(C2=CCNCC2)nn1-c1ccc(F)cc1F", "note": "[Example 215, 2-(2,4-Difluorophenyl)-4-(1,2,3,6-tetrahydropyridin-4-yl)phthalazin-1(2H)-one-hydrochloride]", "Sirt6 Activity (% activity, 10 μM)": 226.60}
{"molecule": "CCN(C)S(=O)(=O)c1cccc(-c2nn(-c3ccc(F)cc3F)c(=O)c3ccccc23)c1", "note": "[Example 216, 3-(3-(2,4-Difluorophenyl)-4-oxo-3,4-dihydrophthalazin-1-yl)-N-ethyl-N-methylbenzenesulfonamide]", "Sirt6 Activity (% activity, 10 μM)": 184.80}
{"molecule": "CCN(CC)S(=O)(=O)c1cccc(-c2nn(-c3ccc(F)cc3F)c(=O)c3ccccc23)c1", "note": "[Example 217, 3-(3-(2,4-Difluorophenyl)-4-oxo-3,4-dihydrophthalazin-1-yl)-N,N-diethylbenzenesulfonamide]", "Sirt6 Activity (% activity, 10 μM)": 185.10}
{"molecule": "CCS(=O)(=O)N1CC=C(c2nn(-c3ccc(F)cc3F)c(=O)c3ccccc23)CC1", "note": "[Example 218, 2-(2,4-Difluorophenyl)-4-(1-(ethylsulfonyl)-1,2,3,6-tetrahydropyridin-4-yl)phthalazin-1(2H)-one]", "Sirt6 Activity (% activity, 10 μM)": 176.50}
{"molecule": "CC(C)(C(=O)O)C1CN(c2nn(-c3ccc(F)cc3F)c(=O)c3ccccc23)CCN1", "note": "(centres unmarked) [Example 219, 2-(4-(3-(2,4-Difluorophenyl)-4-oxo-3,4-dihydrophthalazin-1-yl)piperazin-2-yl)-2-methylpropanoic Acid]", "Sirt6 Activity (% activity, 10 μM)": 114.60}
{"molecule": "CN1CCN(c2nn(-c3ccc(F)cc3F)c(=O)c3ccccc23)CC1C(C)(C)C(=O)O", "note": "(centres unmarked) [Example 220, 2-(4-(3-(2,4-Difluorophenyl)-4-oxo-3,4-dihydrophthalazin-1-yl)-1-methylpiperazin-2-yl)-2-methylpropanoic Acid]", "Sirt6 Activity (% activity, 10 μM)": 125.80}
{"molecule": "CC(C)(C(=O)O)C1CN(c2nn(-c3ccc(F)cc3F)c(=O)c3ccccc23)CCO1", "note": "(centres unmarked) [Example 221, 2-(4-(3-(2,4-Difluorophenyl)-4-oxo-3,4-dihydrophthalazin-1-yl)morpholin-2-yl)-2-methylpropanoic Acid]", "Sirt6 Activity (% activity, 10 μM)": 125.50}
{"molecule": "N-(3-(4-Oxo-3-(tetrahydro-2H-pyran-4-yl)-3,4-dihydrophthalazin-1-yl)phenyl)ethanesulfonamide [Example 151]", "Sirt6 Activity (% activity, 10 μM)": 145.64}
{"molecular_target": "T1, Sirt6", "assay": "Measurement of Sirt6 Activity (CycLex Sirt6 Deacetylase Fluorometric Assay Kit)", "format": "biochemical", "details": "compound at 10 μM; fluorescence relative to the group without compound treatment (positive control group); 10 µM", "method_in_brief": "as §1", "units": {"Sirt6 Activity (% activity, 10 μM)": "% activity"}}
{"molecule": "CC(C)(C(=O)O)C1CCCN(c2nn(-c3ccc(F)cc3F)c(=O)c3ccccc23)C1", "note": "(centres unmarked) [Example 210-2, 2-(1-(3-(2,4-Difluorophenyl)-4-oxo-3,4-dihydrophthalazin-1-yl)piperidin-3-yl)-2-methylpropanoic Acid]", "Sirt6 Activity (% activity, 10 μM)": 100.50}
{"molecule": "O=C(O)C1(C2CCCN(c3nn(-c4ccc(F)cc4F)c(=O)c4ccccc34)C2)CC1", "note": "(centres unmarked) [Example 212, 1-(1-(3-(2,4-Difluorophenyl)-4-oxo-3,4-dihydrophthalazin-1-yl)piperidin-3-yl)cyclopropan-1-carboxylic Acid]", "Sirt6 Activity (% activity, 10 μM)": 170.10}
{"molecule": "O=C(O)C1(C2CCCN(c3nn(-c4ccc(F)cc4F)c(=O)c4ccccc34)C2)CC1", "note": "(centres unmarked) [Example 213-1, 1-(1-(3-(2,4-Difluorophenyl)-4-oxo-3,4-dihydrophthalazin-1-yl)piperidin-3-yl)cyclopropan-1-carboxylic Acid]", "Sirt6 Activity (% activity, 10 μM)": 168.10}
{"molecule": "O=C(O)C1(C2CCCN(c3nn(-c4ccc(F)cc4F)c(=O)c4ccccc34)C2)CC1", "note": "(centres unmarked) [Example 213-2, 1-(1-(3-(2,4-Difluorophenyl)-4-oxo-3,4-dihydrophthalazin-1-yl)piperidin-3-yl)cyclopropan-1-carboxylic Acid]", "Sirt6 Activity (% activity, 10 μM)": 102.60}
